In series [1] the target is FAK recombinant protein (Homo sapiens, UniProt Q05397). As to the kind of experiment: Inhibitory activity against FAK enzyme. To be noted: TK substrate, ATP. The class given is biochemical. As for the experimental part:
The compound serially diluted with DMSO and a FAK recombinant protein were mixed, and the mixture was left to stand at room temperature for 10 min. A biotin-labeled TK substrate (TK) and ATP were then added. […] After the mixture was incubated at room temperature for 1 h, the fluorescence intensity at 615 nm and 665 nm was measured. The ratio of the fluorescence intensity at 665 nm and 615 nm was calculated. The inhibition percentages and IC50 of the compounds were calculated compared to the DMSO control group.

The subject of series [2] is PC3 cells. The series is described as follows: PC3 cell proliferation, 2D activity detection. In kind it is cell-based, human. To be noted: Homo sapiens, PC-3, PC3, 2D, 72 h, read-out: 2D IC50 against PC3 cells. As for the experimental part: 2D activity detection: 1200 PC3 cells were seeded in a 96-well plate. After overnight adherence culture, the compound serially diluted was added. 72 h after addition, Cell Titer-Lumi (Beyotime C0068XL) was added to measure the ATP content in the cells. The growth of the cells was evaluated, and IC50 of the compounds against cell growth was calculated.

In series [3] the test system is PC3 cells. The series is described as follows: PC3 cell proliferation, 3D activity detection. In kind it is cell-based, human. To be noted: Homo sapiens, PC-3, 336 h, PC3, 3D culture, 14 days, read-out: 3D IC50 against PC3 cells. On the procedure: 3D activity detection: PC3 cells were seeded in a 96-well plate at 1200 cells/well, and 3D culture was performed. 14 days after the compound serially diluted was added, the growth of the cells was determined. The inhibition percentage and IC50 of the compound were calculated compared to the DMSO control group.

Series [4] in a line: In vivo pharmacokinetic experiment in mice. Also noted: species or system CD-1 female mice. To be noted: female, mouse, plasma, CD-1 mice. On the procedure:
On the day of the experiment, animals in the intravenous group were administered the corresponding compound by single injection via the tail vein at an administration volume of 10 mL/kg, and animals in the oral group were administered the corresponding compound by single intragastric injection at an administration volume of 10 mL/kg. The animals were weighed before administration, and the administration volume was calculated according to the body weight. […] About 200 μL of whole blood was collected through the orbital venous plexus at each time point and used to prepare plasma for concentration determination by high-performance liquid chromatography-tandem mass spectrometry (LC-MS/MS). The plasma concentrations were processed using a non-compartmental model of Winnolin pharmacokinetic software, and the pharmacokinetic parameters were calculated using a linear-log trapezoidal method.

Series [5] deals with PC3 cells. As to the kind of experiment: Inhibition of PC3 cell adherence. To be noted: Homo sapiens, PC-3; PC3, 4 h treatment; read-out: Inhibitory activity against PC-3 cell adherence IC50. In kind it is cell-based. On the procedure: PC3 cells were added at 8000 cells/well. 4 h after the cells were treated with the compound, the number of adherent cells was counted. The inhibition percentages and IC50 of the compounds were calculated compared to the DMSO group.

Usually IC50 stands for the concentration needed to halve the response being measured. The AUC(0-t) is the area under the concentration-time curve up to a stated or last time point. Read a low AUC(0-t) as low exposure. One may read the clearance as a measure of how efficiently the substance is removed, as volume per time. High values mean a high capacity for elimination, low ones a low capacity for elimination. One may read the half-life as the time needed for the level to fall by half in the phase considered. A lower half-life goes with rapid decline. In general, Cmax refers to the peak of the concentration-time curve. The term Tmax denotes the time at which the peak concentration occurs. The term bioavailability denotes the share of a dose that reaches the circulation, judged against a reference dose that is usually intravenous.

Sequence of FAK recombinant protein (Q05397 whole entry, species assumed): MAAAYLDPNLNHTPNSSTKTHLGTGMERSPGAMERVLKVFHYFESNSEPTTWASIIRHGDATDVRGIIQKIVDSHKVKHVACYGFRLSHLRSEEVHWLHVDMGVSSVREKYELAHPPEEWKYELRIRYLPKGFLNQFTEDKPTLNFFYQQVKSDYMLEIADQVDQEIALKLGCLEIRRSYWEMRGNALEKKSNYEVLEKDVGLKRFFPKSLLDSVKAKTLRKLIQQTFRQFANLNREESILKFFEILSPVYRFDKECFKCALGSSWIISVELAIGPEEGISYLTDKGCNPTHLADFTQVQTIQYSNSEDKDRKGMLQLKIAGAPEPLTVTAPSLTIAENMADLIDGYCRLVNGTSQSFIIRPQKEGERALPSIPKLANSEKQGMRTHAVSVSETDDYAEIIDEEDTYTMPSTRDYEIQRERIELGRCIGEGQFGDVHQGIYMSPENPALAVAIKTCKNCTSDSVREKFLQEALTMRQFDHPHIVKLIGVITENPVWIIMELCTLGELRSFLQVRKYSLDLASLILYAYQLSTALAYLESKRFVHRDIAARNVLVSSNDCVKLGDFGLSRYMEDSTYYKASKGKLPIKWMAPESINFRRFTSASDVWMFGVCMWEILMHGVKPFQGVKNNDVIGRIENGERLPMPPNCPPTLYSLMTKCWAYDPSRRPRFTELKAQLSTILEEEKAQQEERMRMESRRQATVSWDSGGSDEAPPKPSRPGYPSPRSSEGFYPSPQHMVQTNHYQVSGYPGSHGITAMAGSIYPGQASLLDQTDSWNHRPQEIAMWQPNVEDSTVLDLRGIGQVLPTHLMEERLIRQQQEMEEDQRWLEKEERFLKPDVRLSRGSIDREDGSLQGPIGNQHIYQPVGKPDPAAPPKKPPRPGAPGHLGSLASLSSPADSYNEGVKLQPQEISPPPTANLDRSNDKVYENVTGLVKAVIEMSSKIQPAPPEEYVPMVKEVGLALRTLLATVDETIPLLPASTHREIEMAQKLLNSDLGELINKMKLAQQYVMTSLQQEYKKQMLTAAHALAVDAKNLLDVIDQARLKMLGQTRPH

For `COc1cc(C(=O)NC2CCC3(CC2)CN(C)C3)c(F)cc1Nc1ncc(C(F)(F)F)c(Oc2cccc3c2C(=O)N(C)C3)n1` [Compound 20], the IC50 in series [1] was less than 10 nM. In series [2] (numeric), the IC50 is greater than 10000 nM. Also, the IC50 in series [3] (numeric (mean where marked *)) was determined as 4.23 nM. In series [4] (injection (IV) 2 mg/kg), the AUC(0-t) was 622 ng·h/mL, the clearance was found to be 26.8 mL/min/kg and the half-life was 3.46 h. Also, the Vd in series [4] (injection (IV) 2 mg/kg, read-out: Vdss) came to 4.99 L/kg. For the same molecule, in series [4] (oral administration 10 mg/kg), the AUC(0-t) was 934 ng·h/mL, the Cmax was 190 ng/mL, the Tmax was found to be 2 h and the half-life is 1.97 h. The molecule also returned a bioavailability in series [4] (oral administration 10 mg/kg vs injection) of 30%.

`COc1cc(C(=O)NC2CCC23CCN(C)CC3)c(F)cc1Nc1ncc(C(F)(F)F)c(Oc2cccc3c2C(=O)N(C)C3)n1` (stereo not drawn) [Compound 21]: the IC50 was 10 to 50 nM in series [1], greater than 10000 nM in series [2] (numeric), 1.32 nM in series [3] (numeric (mean where marked *)) and 8.5 nM in series [5].

Turning to `COc1cc(C(=O)N2CC3(CCN(C)CC3)C2)c(F)cc1Nc1ncc(C(F)(F)F)c(Oc2cccc3c2C(=O)N(C)C3)n1` [Compound 34], the IC50 in series [1] was less than 10 nM; in series [2] (class symbol), greater than 2000 nM; in series [3] (numeric (mean where marked *)) it was 41.3 nM; in series [5], 86 nM.

Consider `COc1cc(N2CC3(CCN(C)CC3)CC2=O)c(F)cc1Nc1ncc(C(F)(F)F)c(Oc2cccc3c2C(=O)N(C)C3)n1` [Compound 62], for which the IC50 in series [1] is less than 10 nM; in series [2] (class symbol) it was greater than 2000 nM; in series [3] (class symbol), less than 5 nM; in series [5], 2.88 nM.

As to `COc1cc(C(=O)NC2CC3(CCN(C)CC3)C2)ccc1Nc1ncc(C(F)(F)F)c(Oc2cccc3c2C(=O)N(OC)C3)n1` [Compound 81], the IC50 in series [1] is less than 10 nM; in series [2] (class symbol), greater than 2000 nM; in series [3] (class symbol), less than 5 nM.

As for `COc1cc(C(=O)NC2CC3(CCN(C)CC3)C2)c(F)cc1Nc1ncc(C(F)(F)F)c(Oc2cccc3c2C(=O)CC3)n1` [Compound 82], the IC50 in series [1] is less than 10 nM; in series [2] (class symbol), greater than 2000 nM; in series [3] (class symbol), 5 to 50 nM.

Turning to `COc1cc(C(=O)NC2CC3(CCN(C)CC3)C2)ccc1Nc1ncc(C(F)(F)F)c(Oc2cccc3c2C(=O)CC3)n1` [Compound 83], the IC50 in series [1] was less than 10 nM; in series [2] (class symbol), greater than 2000 nM; in series [3] (class symbol), 5 to 50 nM.

Take `COc1cc(C(=O)NC2CC3(CCN(C)CC3)C2)c(F)cc1Nc1ncc(C(F)(F)F)c(Cc2cccc3c2C(=O)CC3)n1` [Compound 84]: the IC50 in series [1] is less than 10 nM; in series [2] (class symbol), greater than 2000 nM; in series [3] (class symbol) it was 5 to 50 nM.

For `CCc1cc(C(=O)NC2CC3(CCN(C)CC3)C2)c(F)cc1Nc1ncc(C(F)(F)F)c(Oc2cccc3c2C(=O)N(C)C3)n1` [Compound 85, 2-fluoro-4-((4-((2-methyl-3-oxoisoindol-4-yl)oxy)-5-(trifluoromethyl)pyrimidin-2-yl)amino)-N-(7-methyl-7-azaspiro[3.5]nonan-2-yl)-5-ethylbenzamide], the results for the IC50 in series [1], in series [2] (class symbol) and in series [3] (class symbol) were 10 to 50 nM, greater than 2000 nM and 5 to 50 nM, respectively.

Turning to `COc1cc(C(=O)NC2CC3(CCN(C)CC3)C2)c(-c2cnn(C)c2)cc1Nc1ncc(C(F)(F)F)c(Oc2cccc3c2C(=O)N(C)C3)n1` [Compound 88], the IC50 in series [1] was 10 to 50 nM; in series [2] (class symbol) it was greater than 2000 nM; in series [3] (class symbol) it was 5 to 50 nM.

For the molecule `COc1cc(N2CCC3(CC2)CN(C)C3)c(F)cc1Nc1ncc(C(F)(F)F)c(Oc2cccc3c2C(=O)N(C)C3)n1` [Compound 91], the values for the IC50 in series [1], in series [2] (class symbol) and in series [3] (class symbol) were less than 10 nM, greater than 2000 nM and less than 5 nM, respectively.

As for `COc1cc(N2CCC3(CCN(C)CC3)CC2)c(F)cc1Nc1ncc(C(F)(F)F)c(Oc2cccc3c2C(=O)N(C)C3)n1` [Compound 93], the IC50 was less than 10 nM in series [1], greater than 2000 nM in series [2] (class symbol) and less than 5 nM in series [3] (class symbol).

On to `COc1cc(N2CCC3(CCN(C)C3)CC2)ccc1Nc1ncc(C(F)(F)F)c(Oc2cccc3c2C(=O)N(C)C3)n1` [Compound 95], for which the IC50 in series [1] is less than 10 nM; in series [2] (class symbol) it was greater than 2000 nM; in series [3] (class symbol) it was less than 5 nM.

Turning to `COc1cc(N2CCC3(CCN(C)CC3)C2)ccc1Nc1ncc(C(F)(F)F)c(Oc2cccc3c2C(=O)N(C)C3)n1` [Compound 96], the 50% inhibitory concentration (IC50) in series [1] is less than 10 nM; in series [2] (class symbol), greater than 2000 nM; in series [3] (class symbol), less than 5 nM.

Take `COc1cc(N2CCC23CCN(C)CC3)ccc1Nc1ncc(C(F)(F)F)c(Oc2cccc3c2C(=O)N(C)C3)n1` [Compound 97]: the values for the IC50 in series [1], in series [2] (class symbol) and in series [3] (class symbol) were less than 10 nM, greater than 2000 nM and less than 5 nM, respectively.

On to `COc1cc(N2CCC3(CCN(C)C3)C2)ccc1Nc1ncc(C(F)(F)F)c(Oc2cccc3c2C(=O)N(C)C3)n1` (stereo not drawn) [Compound 98], for which the values for the IC50 in series [1], in series [2] (class symbol) and in series [3] (class symbol) were less than 10 nM, greater than 2000 nM and less than 5 nM, respectively.

As for `CCN1CCC2(CC1)CN(c1ccc(Nc3ncc(C(F)(F)F)c(Oc4cccc5c4C(=O)N(C)C5)n3)c(OC)c1)C2` [Compound 103], the IC50 in series [1] was less than 10 nM; in series [2] (class symbol) it was greater than 2000 nM; in series [3] (class symbol), less than 5 nM.

On to `COc1cc(N2CC3(CCN(C4CC4)CC3)C2)ccc1Nc1ncc(C(F)(F)F)c(Oc2cccc3c2C(=O)N(C)C3)n1` [Compound 104], for which the IC50 in series [1] was less than 10 nM; in series [2] (class symbol), greater than 2000 nM; in series [3] (class symbol) it was less than 5 nM.

Turning to `COc1cc(N2CC3(CCN(C4CCC4)CC3)C2)ccc1Nc1ncc(C(F)(F)F)c(Oc2cccc3c2C(=O)N(C)C3)n1` [Compound 105], the IC50 is less than 10 nM in series [1], greater than 2000 nM in series [2] (class symbol) and less than 5 nM in series [3] (class symbol).

As to `COc1cc(N2CC3(CCN(CC4CC4)CC3)C2)ccc1Nc1ncc(C(F)(F)F)c(Oc2cccc3c2C(=O)N(C)C3)n1` [Compound 106], the results for the IC50 in series [1], in series [2] (class symbol) and in series [3] (class symbol) were less than 10 nM, greater than 2000 nM and less than 5 nM, respectively.

For the molecule `COc1cc(N2CC3(CCNCC3)C2)c(F)cc1Nc1ncc(C(F)(F)F)c(Oc2cccc3c2C(=O)N(C)C3)n1` [Compound 107, 7-((2-((5-fluoro-2-methoxy-4-(2,7-diazaspiro[3.5]non-2-yl)phenyl)amino)-5-(trifluoromethyl)pyrimidin-4-yl)oxy)-2-methylisoindolin-1-one], the IC50 was less than 10 nM in series [1], greater than 2000 nM in series [2] (class symbol) and less than 5 nM in series [3] (class symbol).

Consider `[2H]C([2H])([2H])N1CCC2(CC1)CN(c1ccc(Nc3ncc(C(F)(F)F)c(Oc4cccc5c4C(=O)N(C)C5)n3)c(OC)c1)C2` [Compound 109, 7-((2-((2-methoxy-4-(7-(methyl-d3)-2,7-diazaspiro[3.5]non-2-yl)phenyl)amino)-5-(trifluoromethyl)pyrimidin-4-yl)oxy)-2-methylisoindolin-1-one], for which the IC50 in series [1] is less than 10 nM; in series [2] (class symbol), greater than 2000 nM; in series [3] (class symbol), less than 5 nM.

For the molecule `COc1cc(N2CC3(CCN(C)CC3)C2)c(F)cc1Nc1ncc(Cl)c(Oc2cccc3c2C(=O)N(C)C3)n1` [Compound 110, 7-((5-chloro-2-((5-fluoro-2-methoxy-4-(7-methyl-2,7-diazaspiro[3.5]non-2-yl)phenyl)amino)pyrimidin-4-yl)oxy)-2-methylisoindolin-1-one], the results for the IC50 in series [1], in series [2] (class symbol) and in series [3] (class symbol) were less than 10 nM, greater than 2000 nM and less than 5 nM, respectively.

With `COc1cc(N2CC3(CCN(C)CC3)C2)ccc1Nc1ncc(F)c(Oc2cccc3c2C(=O)N(C)C3)n1` [Compound 115], the IC50 in series [1] was less than 10 nM; in series [2] (class symbol), greater than 2000 nM; in series [3] (numeric (mean where marked *)), 67 nM.

Regarding `COc1cc(N2CCC3(CC2)CN(C)C3)ccc1Nc1ncc(Cl)c(Oc2cccc3c2C(=O)N(C)C3)n1` [Compound 116], the IC50 is less than 10 nM in series [1], greater than 2000 nM in series [2] (class symbol) and less than 5 nM in series [3] (class symbol).

Take `COc1cc(N2CCC3(CC2)CN(C)C3)ccc1Nc1ncc(Br)c(Oc2cccc3c2C(=O)N(C)C3)n1` [Compound 117]: the values for the IC50 in series [1], in series [2] (class symbol) and in series [3] (class symbol) were less than 10 nM, greater than 2000 nM and less than 5 nM, respectively.

For the origin of these results see patent publication US20260159499A1, “COMPOUND AS FAK INHIBITOR AND USE THEREOF” (WIGEN BIOMEDICINE TECHNOLOGY (SHANGHAI) CO., LTD., priority 2021, published 2026).
